Read-outs that look alike come from different tables or passages of the source.
Assays:
[1] = Plasma pharmacokinetics in phase 1 trial; details: human, iv; for Vd: patients, Day 1, HPLC-MS/MS, noncompartmental, cohort mean
Experimental: (§3) Blood samples for PK analysis were collected in EDTA-coated tubes on Day 1 for all patients preinfusion, at the end of infusion, and at 5, 10, 15, 30, 45, 60, 90, 120, 150, 180, 240, 400, 460 and 520 min after infusion. Samples were immediately centrifuged, and the plasma was separated and stored at −20°C prior to analysis.
(§4) Pharmacokinetic data were modelled using a noncompartmental approach to estimate individual subject values for the following parameters: maximum observed concentration (Cmax), time of the maximum observed concentration (Tmax), volume of distribution at steady state (VSS), terminal elimination half-life (t1/2), total systemic clearance (CL), area under the plasma concentration-time curve (AUC), and CLr. For these parameters the mean and s.d. coefficient of variation were calculated.
(§5) Descriptive PKs parameters were determined by standard model independent methods for infusion administration ([Perrier and Gibaldi, 1982]) from plasma concentrations in each individual patient. Plasma and urine concentrations were rounded to the nearest [drawing 1] ng ml^−1 before the calculations. Plasma samples with concentrations below the quantifiable limit of 50.0 ng ml^−1 (BQL) were assigned values of zero for generation of mean and s.d. plasma concentrations. For PKs calculations, BQL was treated as zero up to the first quantifiable plasma concentration and then treated as an empty value thereafter. Urine samples reported as BQL (⩽50.0 ng ml^−1) were treated as zero for all calculations. Actual patient blood collection sampling times relative to the start of infusion were used for PKs calculations; however, scheduled collection times were used for urinary excretion data and graphical presentations of all data.

[2] = Urinary excretion and renal clearance in phase 1 trial; format: in vivo, human; details: urine; for dose excreted: human, iv
Experimental: as §3, §4, §5

integrin beta subunits = details: ref Donate et al, 2003; cited from earlier work
From the text: (§1) ATN-161 is a noncompetitive inhibitor of the fibronectin PHSRN sequence, in which a cysteine residue has been substituted for arginine along with peptide acetylation and amidation in order to yield a product with acceptable pharmaceutical properties (Ac-PHSCN-NH2). […] Thus, ATN-16 ...

[3] = system: integrin-dependent adhesion; details: ref Plunkett and Mazar, 2002, Plunkett et al; cited from earlier work
From the text: as §1

[4] = Toxicity / adverse events in phase 1 trial (NCI CTC v2.0); format: in vivo, human; details: for Number of patients with ATN-161-associated adverse events: possible, probable or definite relationship
Experimental: ATN-161 was administered as a 10-min infusion, three times per week. Sequential cohorts of three patients were enrolled to eight different dose levels (0.1, 0.25, 0.5, 1.0, 2.0, 4.0, 8.0 and 16.0 mg kg^−1). All patients in a given dose level were evaluated for at least 28 days before patients could be treated at the next higher dose level. Patients receiving therapy for <1 cycle (4 weeks) were to be replaced unless they had experienced a DLT. Toxicity was evaluated according to the NCI Common Terminology Criteria (CTC) Version 2.0. Dose-limiting toxicities were defined as any of the following treatment-related events occurring during the first cycle of therapy: Grade 4 neutropenia or febrile neutropenia, any other Grade 3 or greater nonhaematologic toxicity, or any toxicity requiring ATN-161 to be held for more than 1 week (i.e., three consecutive missed doses). In the event of DLT, dosing was to be held until recovery to at least Grade 1 toxicity and a new dosing cycle for that patient was to be initiated at the investigator's discretion at 50% of the previous dose. […] In the event of Grade 2 toxicity involving vital organs (hepatic, pulmonary, renal, neurologic, gastrointestinal or cardiotoxicity), the dose of ATN-161 was to be held until recovery to Grade 0–1 before a new cycle was initiated at 100% dosing. If the Grade 2 toxicity recurred, dosing was to be held until recovery to Grade 0–1 and the next cycle would resume at 50%. Occurrence of DLT at a given dose level would require further enrolment of up to six patients at that dose level to determine if the MTD had been exceeded. The MTD was defined as one dose level below which ⩾2/6 patients experienced a DLT. Treatment could continue until progressive disease, or one of the following: unacceptable toxicity, intercurrent illness, patient declined further treatment, or physician decision in view of a patient's other medical conditions.
(§2) During treatment, patients were evaluated monthly with physical examinations including toxicity assessment using the CTC, ECOG PS, serum chemistry, haematology and coagulation testing. Tumour burden was reassessed every two cycles (8 weeks) by physical exam or radiological methods as appropriate using RECIST ([Therasse et al, 2000]).
No inferential analyses were performed. Data are presented in a descriptive fashion. Treatment-emergent adverse events were translated from investigator terms to MedDRA terminology and summarised within and across dose levels for all patients who received at least one dose of ATN-161. Treatment administration is described for all patients, including drug/dose administration, number of cycles, dose modifications or delays and duration of therapy.

MLL tumours = details: Copenhagen rats, ref Livant et al, 2000b, cited from earlier work
[5] = Serological antibody immune response against ATN-161 in patients; format: in vivo, human
advanced solid tumours = experiment: Clinical response by RECIST in phase 1 trial; format: in vivo, human
Experimental: as §2

[6] = dose level 0.5 mg kg^−1, ATN-161-associated, any course
[7] = dose level 1.0 mg kg^−1, ATN-161-associated, any course
[8] = dose level 2.0 mg kg^−1, ATN-161-associated, any course
[9] = dose level 4.0 mg kg^−1, ATN-161-associated, any course

Ac-PHSCN-NH2 [ATN-161, Ac-PHSCN-NH2]
AUC(0-t) ([1]; 0.25 mg/kg): 3420 ng·h/mL
Cmax ([1]; 0.25 mg/kg): 1120 ng/mL
MRT ([1]; 0.25 mg/kg): 5.5 h
clearance ([1]; 0.25 mg/kg): 1.33 mL/min/kg
half-life ([1]; 0.25 mg/kg): 4.4 h
Vd ([1]; 0.25 mg/kg, Vd (volume of distribution), 0.25 mg kg^−1 10-min i.v. infusion): 0.48 L/kg
Vd ([1]; 0.25 mg/kg, Vss (volume of distribution at steady state), 0.25 mg kg^−1 10-min i.v. infusion): 0.33 L/kg
AUC(0-t) ([1]; 0.5 mg/kg): 3610 ng·h/mL
Cmax ([1]; 0.5 mg/kg): 5790 ng/mL
MRT ([1]; 0.5 mg/kg): 3.3 h
clearance ([1]; 0.5 mg/kg): 2.83 mL/min/kg
half-life ([1]; 0.5 mg/kg): 3.2 h
Vd ([1]; 0.5 mg/kg, Vd (volume of distribution), 0.5 mg kg^−1 10-min i.v. infusion): 0.87 L/kg
Vd ([1]; 0.5 mg/kg, Vss (volume of distribution at steady state), 0.5 mg kg^−1 10-min i.v. infusion): 0.47 L/kg
AUC(0-t) ([1]; 1 mg/kg): 1450 ng·h/mL
Cmax ([1]; 1 mg/kg): 3800 ng/mL
MRT ([1]; 1 mg/kg): 3.8 h
clearance ([1]; 1 mg/kg): 10.2 mL/min/kg
half-life ([1]; 1 mg/kg): 3.9 h
Vd ([1]; 1 mg/kg, Vd (volume of distribution), 1 mg kg^−1 10-min i.v. infusion): 3.38 L/kg
Vd ([1]; 1 mg/kg, Vss (volume of distribution at steady state), 1 mg kg^−1 10-min i.v. infusion): 2.3 L/kg
AUC(0-t) ([1]; 2 mg/kg): 3320 ng·h/mL
Cmax ([1]; 2 mg/kg): 15700 ng/mL
MRT ([1]; 2 mg/kg): 2.5 h
clearance ([1]; 2 mg/kg): 11.5 mL/min/kg
half-life ([1]; 2 mg/kg): 3.5 h
Vd ([1]; 2 mg/kg, Vd (volume of distribution), 2 mg kg^−1 10-min i.v. infusion): 3.38 L/kg
Vd ([1]; 2 mg/kg, Vss (volume of distribution at steady state), 2 mg kg^−1 10-min i.v. infusion): 1.93 L/kg
AUC(0-t) ([1]; 4 mg/kg): 3710 ng·h/mL
Cmax ([1]; 4 mg/kg): 5480 ng/mL
MRT ([1]; 4 mg/kg): 4.8 h
clearance ([1]; 4 mg/kg): 14.5 mL/min/kg
half-life ([1]; 4 mg/kg): 4.3 h
Vd ([1]; 4 mg/kg, Vd (volume of distribution), 4 mg kg^−1 10-min i.v. infusion): 5.59 L/kg
Vd ([1]; 4 mg/kg, Vss (volume of distribution at steady state), 4 mg kg^−1 10-min i.v. infusion): 3.82 L/kg
AUC(0-t) ([1]; 8 mg/kg): 34200 ng·h/mL
Cmax ([1]; 8 mg/kg): 34400 ng/mL
MRT ([1]; 8 mg/kg): 3.4 h
clearance ([1]; 8 mg/kg): 7 mL/min/kg
half-life ([1]; 8 mg/kg): 3.3 h
Vd ([1]; 8 mg/kg, Vd (volume of distribution), 8 mg kg^−1 10-min i.v. infusion): 2.14 L/kg
Vd ([1]; 8 mg/kg, Vss (volume of distribution at steady state), 8 mg kg^−1 10-min i.v. infusion): 1.32 L/kg
AUC(0-t) ([1]; 16 mg/kg): 54900 ng·h/mL
Cmax ([1]; 16 mg/kg): 72700 ng/mL
MRT ([1]; 16 mg/kg): 5.3 h
clearance ([1]; 16 mg/kg): 5.83 mL/min/kg
half-life ([1]; 16 mg/kg): 5 h
Vd ([1]; 16 mg/kg, Vd (volume of distribution), 16 mg kg^−1 10-min i.v. infusion): 2.36 L/kg
Vd ([1]; 16 mg/kg, Vss (volume of distribution at steady state), 16 mg kg^−1 10-min i.v. infusion): 1.61 L/kg
time after dose administration in which the majority of the dose was excreted ([2]; almost all patients (23 of 26)): ≤ 2 h
dose excreted ([2]; 0.1 mg/kg, patients, 0.1 mg kg^−1 10-min i.v. infusion, Day 1, HPLC-MS/MS, cohort mean, read-out: Urinary excretion between 0 and 7 h as a percent of dose): 2.46%
dose excreted ([2]; 0.25 mg/kg, patients, 0.25 mg kg^−1 10-min i.v. infusion, Day 1, HPLC-MS/MS, cohort mean, read-out: Urinary excretion between 0 and 7 h as a percent of dose): 13.8%
dose excreted ([2]; 0.5 mg/kg, patients, 0.5 mg kg^−1 10-min i.v. infusion, Day 1, HPLC-MS/MS, cohort mean, read-out: Urinary excretion between 0 and 7 h as a percent of dose): 25.3%
dose excreted ([2]; 1 mg/kg, patients, 1 mg kg^−1 10-min i.v. infusion, Day 1, HPLC-MS/MS, cohort mean, read-out: Urinary excretion between 0 and 7 h as a percent of dose): 1.82%
dose excreted ([2]; 2 mg/kg, patients, 2 mg kg^−1 10-min i.v. infusion, Day 1, HPLC-MS/MS, cohort mean, read-out: Urinary excretion between 0 and 7 h as a percent of dose): 2.35%
dose excreted ([2]; 4 mg/kg, patients, 4 mg kg^−1 10-min i.v. infusion, Day 1, HPLC-MS/MS, cohort mean, read-out: Urinary excretion between 0 and 7 h as a percent of dose): 2.36%
dose excreted ([2]; 8 mg/kg, patients, 8 mg kg^−1 10-min i.v. infusion, Day 1, HPLC-MS/MS, cohort mean, read-out: Urinary excretion between 0 and 7 h as a percent of dose): 17.5%
dose excreted ([2]; 16 mg/kg, patients, 16 mg kg^−1 10-min i.v. infusion, Day 1, HPLC-MS/MS, cohort mean, read-out: Urinary excretion between 0 and 7 h as a percent of dose): 15.3%
dose excreted ([2]; majority of the patients (20 of 26), all dose levels, urine 0-7 h, read-out: Urinary excretion, percent of administered dose): ~2%
dose excreted ([2]; remaining six of 26 patients, not associated with dose level, urine 0-7 h, read-out: Urinary excretion, percent of administered dose): 20 to 50%
Binding to integrin subunits (integrin beta subunits): binds exclusively to integrin beta subunits
Block of integrin-dependent adhesion [3]: does not block
Number of patients with Muscle cramps [4, 6]: 1
Number of patients with Sweating increased [4, 6]: 1
Number of patients with ATN-161-associated adverse events ([4]; dose level 0.5 mg kg^−1, any course): 1
Number of patients with Cellulitis [4, 7]: 1
Number of patients with Dry mouth [4, 7]: 1
Number of patients with Pain in limb [4, 7]: 1
Number of patients with Paresthesia [4, 7]: 1
Number of patients with Phlebitis not otherwise specified (NOS) [4, 7]: 1
Number of patients with ATN-161-associated adverse events ([4]; dose level 1.0 mg kg^−1, any course): 1
Number of patients with Anemia NOS [4, 8]: 1
Number of patients with Hypotension NOS [4, 8]: 1
Number of patients with Oral candidiasis [4, 8]: 1
Number of patients with ATN-161-associated adverse events ([4]; dose level 2.0 mg kg^−1, any course): 2
Number of patients with Constipation [4, 9]: 1
Number of patients with Fatigue [4, 9]: 1
Number of patients with Nausea [4, 9]: 2
Number of patients with ATN-161-associated adverse events ([4]; dose level 4.0 mg kg^−1, any course): 2
Number of patients with Nausea ([4]; dose level 8.0 mg kg^−1, ATN-161-associated, any course): 1
Number of patients with ATN-161-associated adverse events ([4]; dose level 8.0 mg kg^−1, any course): 1
Number of patients with Hypotension NOS ([4]; dose level 16.0 mg kg^−1, ATN-161-associated, any course): 1
Number of patients with ATN-161-associated adverse events ([4]; dose level 16.0 mg kg^−1, any course): 1
Dose-limiting toxicities (DLTs) ([4]; patients, 0.1-16 mg kg^−1 thrice weekly i.v., 26 patients): no DLTs occurred
MTD (maximum tolerated dose) ([4]; patients, 10-min i.v. infusion three times per week, not reached, 16 mg kg^−1 designated maximum administered dose): > 16 mg/kg
Growth of primary MLL tumours (MLL tumours; systemic 5 mg kg^−1, five injections over 16 days): markedly reduced
Ability of MLL tumour cells to metastasise (MLL tumours): inhibited
Antibody immune response against ATN-161 [5]: no serological evidence
Objective response as defined by RECIST (advanced solid tumours; 26 patients, 0.1-16 mg kg^−1 thrice weekly i.v.): No patient in the study had an objective response
Fraction of patients with prolonged stable disease (advanced solid tumours; patients in the study, all dose levels): 1/3
Patients with stable disease of >4 months (advanced solid tumours; six of the 26 treated patients, 0.1-16 mg kg^−1 thrice weekly i.v.): 23%
